The source made the active and inactive calls. The rule behind the calls is not given here. A value given as a limit tells only on which side of the number the result lay.

The target in test [1] is Neuronal acetylcholine receptor subunit alpha-7 (Rattus norvegicus, UniProt Q05941). In words: Displacement of [125I]alpha-bungarotoxin from alpha7 nAChR in Sprague-Dawley rat hippocampus membrane homogenates by gamma counting. On the set-up: species or system Sprangue-Dawley.
Test [2] addresses Neuronal acetylcholine receptor; alpha4/beta2 (Rattus norvegicus, UniProt P09483+P12390). In words: Displacement of [3H]epibatidine from immunoimmobilized alpha4beta2 nAChR in Sprague-Dawley rat striatal membranes by liquid scintillation counting. Also on record: species or system Sprangue-Dawley, Striatum, Membrane.
Test [3] can be described thus: Antagonist activity at nAChR in Sprague-Dawley rat striatal slices assessed as inhibition of nicotine-induced [3H]-dopamine release. The settings on record: Sprangue-Dawley.
The target in test [4] is T1, Neuronal acetylcholine receptor; alpha4/beta2 (Homo sapiens, UniProt P17787+P43681). Put plainly: Partial agonist activity at human alpha4beta2 nAChR expressed in HEK293 cells assessed as inward current at holding potential of -70 mV by patch clamp technique relative to acetylcholine. The class given is cell-based. Also on record: concentration or dose not given beside the values.
T1 sequence (P17787 whole entry): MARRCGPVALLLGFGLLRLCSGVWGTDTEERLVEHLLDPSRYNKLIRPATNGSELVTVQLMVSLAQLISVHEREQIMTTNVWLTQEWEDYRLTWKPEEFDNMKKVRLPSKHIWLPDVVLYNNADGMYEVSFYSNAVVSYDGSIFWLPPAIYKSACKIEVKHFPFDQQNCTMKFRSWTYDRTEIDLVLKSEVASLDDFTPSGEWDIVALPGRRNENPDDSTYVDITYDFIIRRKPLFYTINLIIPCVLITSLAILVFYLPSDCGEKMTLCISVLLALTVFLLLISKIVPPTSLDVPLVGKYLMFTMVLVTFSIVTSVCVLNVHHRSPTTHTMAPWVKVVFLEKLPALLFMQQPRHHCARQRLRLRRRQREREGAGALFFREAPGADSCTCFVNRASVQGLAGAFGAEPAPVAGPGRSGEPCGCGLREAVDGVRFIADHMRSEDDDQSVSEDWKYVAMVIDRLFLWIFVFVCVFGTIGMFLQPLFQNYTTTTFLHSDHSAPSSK
T1 sequence (P43681 whole entry): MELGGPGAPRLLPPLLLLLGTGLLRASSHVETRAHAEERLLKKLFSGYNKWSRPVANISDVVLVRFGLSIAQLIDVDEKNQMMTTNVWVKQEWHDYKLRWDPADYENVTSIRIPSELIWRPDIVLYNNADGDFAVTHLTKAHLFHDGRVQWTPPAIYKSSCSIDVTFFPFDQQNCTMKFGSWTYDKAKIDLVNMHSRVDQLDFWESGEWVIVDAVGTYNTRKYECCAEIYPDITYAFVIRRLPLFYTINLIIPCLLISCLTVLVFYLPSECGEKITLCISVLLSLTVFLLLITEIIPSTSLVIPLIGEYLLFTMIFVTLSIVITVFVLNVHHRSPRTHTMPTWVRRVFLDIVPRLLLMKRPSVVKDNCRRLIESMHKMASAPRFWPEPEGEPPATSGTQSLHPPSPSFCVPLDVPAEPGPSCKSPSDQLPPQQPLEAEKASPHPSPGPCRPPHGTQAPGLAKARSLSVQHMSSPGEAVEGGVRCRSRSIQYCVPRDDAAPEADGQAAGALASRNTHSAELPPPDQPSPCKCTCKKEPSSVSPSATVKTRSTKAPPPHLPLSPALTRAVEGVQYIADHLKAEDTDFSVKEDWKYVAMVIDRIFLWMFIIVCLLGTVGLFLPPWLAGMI

The target in test [5] is T1, Neuronal acetylcholine receptor; alpha4/beta2. Put plainly: Antagonist activity at human alpha4beta2 nAChR expressed in HEK293 cells assessed as inhibition of acetylcholine-induced inward current at holding potential of -70 mV by patch clamp technique. It is filed as cell-based. In general terms: In patch-clamp work, channel activity is measured electrically.
The species named for test [6] is Rattus norvegicus. Put plainly: Agonist activity at nAChR in Sprague-Dawley rat striatal slices assessed as induction of [3H]-dopamine release. As to conditions: Sprangue-Dawley.
Test [7] addresses T1, Neuronal acetylcholine receptor; alpha4/beta2. In words: Binding affinity to alpha4beta2 nAChR (unknown origin). The class given is protein-complex assay.
The species named for test [8] is Rattus norvegicus. Put plainly: Agonist activity at nAChR in Sprague-Dawley rat striatal slices assessed as induction of [3H]-dopamine release at 25 uM. The settings on record: Sprangue-Dawley.
The species entered for test [9] is Rattus norvegicus. In words: Antagonist activity at nAChR in Sprague-Dawley rat striatal slices assessed as inhibition of nicotine-induced [3H]-dopamine release at 10 uM. As to conditions: Sprangue-Dawley.
Test [10] concerns the target T1, Neuronal acetylcholine receptor; alpha4/beta2. In words: Agonist activity at alpha4beta2 nAChR (unknown origin) expressed in HEK293 cells assessed as increase of ERK1/2 phosphorylation at 10 uM after 5 mins by Western blotting. It is filed as cell-based.
Test [11] has the same target. In words: Antagonist activity at alpha4beta2 nAChR (unknown origin) expressed in HEK293 cells assessed as reduction of nicotine-induced ERK1/2 phosphorylation at 10 uM treated 30 mins before nicotine addition by Western blotting. It is filed as cell-based. A general note: Immunoblotting shows a protein as a band on a membrane.
Test [12] addresses Neuronal acetylcholine receptor; alpha4/beta2 (Rattus norvegicus) (UniProt P09483+P12390). In words: Ratio of NHNB Ki to compound Ki for immunoimmobilized alpha4beta2 nAChR in Sprague-Dawley rat striatal membranes. As to conditions: Sprangue-Dawley.
The target in test [13] is D(2) dopamine receptor (Rattus norvegicus, UniProt P61169). In words: Displacement of [3H]raclopride from dopamine D2 receptor in Sprague-Dawley rat striatal membranes after 30 mins. On the set-up: species or system Sprangue-Dawley, Striatum, Membrane. Background: In a radioligand displacement assay an active substance lowers the binding of a labelled ligand.
D(2) dopamine receptor, sequence (P61169 whole entry): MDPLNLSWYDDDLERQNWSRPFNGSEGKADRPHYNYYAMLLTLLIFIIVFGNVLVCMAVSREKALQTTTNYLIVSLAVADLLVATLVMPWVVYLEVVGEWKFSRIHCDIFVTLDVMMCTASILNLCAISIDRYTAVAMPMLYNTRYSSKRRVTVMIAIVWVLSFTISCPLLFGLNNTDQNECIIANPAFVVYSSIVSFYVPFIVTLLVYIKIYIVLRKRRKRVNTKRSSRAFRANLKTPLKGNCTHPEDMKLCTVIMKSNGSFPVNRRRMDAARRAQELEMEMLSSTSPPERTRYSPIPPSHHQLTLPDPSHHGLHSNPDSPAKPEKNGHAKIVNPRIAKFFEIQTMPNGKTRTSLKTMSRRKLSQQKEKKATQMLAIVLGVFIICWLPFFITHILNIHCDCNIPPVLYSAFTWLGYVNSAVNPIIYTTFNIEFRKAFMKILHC
The target of test [14] is D(3) dopamine receptor (Homo sapiens, UniProt P35462). In words: Displacement of [3H]raclopride from dopamine D3 receptor (unknown origin) expressed in HEK293 cells after 30 mins. The class given is cell-based.
D(3) dopamine receptor, sequence (P35462 whole entry): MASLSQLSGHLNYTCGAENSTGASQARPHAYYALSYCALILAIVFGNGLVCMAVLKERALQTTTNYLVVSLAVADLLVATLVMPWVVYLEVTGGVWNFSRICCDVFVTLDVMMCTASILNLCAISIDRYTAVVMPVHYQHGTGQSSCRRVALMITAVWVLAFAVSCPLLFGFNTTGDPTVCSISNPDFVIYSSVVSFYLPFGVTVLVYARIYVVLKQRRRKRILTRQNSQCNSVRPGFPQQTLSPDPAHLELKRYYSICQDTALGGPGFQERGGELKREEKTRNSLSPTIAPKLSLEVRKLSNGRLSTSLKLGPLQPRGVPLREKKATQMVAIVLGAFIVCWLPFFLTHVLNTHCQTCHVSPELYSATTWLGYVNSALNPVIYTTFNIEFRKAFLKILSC
The target of test [15] is Mitogen-activated protein kinase; ERK1/ERK2 (Homo sapiens) (UniProt P27361+P28482). In words: Induction of ERK1/2 phosphorylation in human HEK293 cells at 10 uM after 5 mins by Western blotting. It is filed as cell-based.
Mitogen-activated protein kinase; ERK1/ERK2 (Homo sapiens), sequence (P27361 whole entry, looked up): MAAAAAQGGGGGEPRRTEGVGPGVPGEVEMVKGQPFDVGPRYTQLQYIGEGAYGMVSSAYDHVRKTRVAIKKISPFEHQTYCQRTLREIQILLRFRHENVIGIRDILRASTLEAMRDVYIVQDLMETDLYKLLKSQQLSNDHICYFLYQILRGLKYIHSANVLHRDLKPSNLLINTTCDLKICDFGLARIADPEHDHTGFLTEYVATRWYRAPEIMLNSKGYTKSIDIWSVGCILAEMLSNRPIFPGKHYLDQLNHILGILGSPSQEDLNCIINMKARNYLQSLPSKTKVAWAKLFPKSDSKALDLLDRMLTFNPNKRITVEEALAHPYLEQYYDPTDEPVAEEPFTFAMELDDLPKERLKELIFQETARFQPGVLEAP
Mitogen-activated protein kinase; ERK1/ERK2 (Homo sapiens), sequence (P28482 whole entry, looked up): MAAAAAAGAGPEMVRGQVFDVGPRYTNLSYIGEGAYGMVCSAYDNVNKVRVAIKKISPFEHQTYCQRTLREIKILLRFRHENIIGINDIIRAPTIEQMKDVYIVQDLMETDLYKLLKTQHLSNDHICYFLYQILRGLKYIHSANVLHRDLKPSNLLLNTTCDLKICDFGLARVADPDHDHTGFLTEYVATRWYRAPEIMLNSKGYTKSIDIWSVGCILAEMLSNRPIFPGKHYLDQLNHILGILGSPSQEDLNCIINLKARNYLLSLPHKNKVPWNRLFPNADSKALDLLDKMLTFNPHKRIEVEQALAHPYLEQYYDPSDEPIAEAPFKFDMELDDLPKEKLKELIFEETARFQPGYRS
Test [16] concerns the target Neuronal acetylcholine receptor subunit alpha-6/beta-3 (Rattus norvegicus) (UniProt P12391+P43143). Put plainly: Ratio of NHNB Ki to compound Ki for immunoimmobilized alpha6beta2 nAChR in Sprague-Dawley rat striatal membranes. As to conditions: Sprangue-Dawley.
Test [17] concerns the target D(2) dopamine receptor (Homo sapiens) (UniProt P14416). In words: Partial agonist activity at dopamine D2 receptor (unknown origin) expressed in HEK293 cells assessed as reduction of quinpirole-induced ERK1/2 phosphorylation at 10 uM treated 30 mins before quinpirole addition by Western blotting. The class given is cell-based. On the set-up: scale not given: the % may be the effect or the level left.

Test [18] is filed under the species Rattus norvegicus. In words: Agonist activity at nAChR in Sprague-Dawley rat striatal slices assessed as induction of [3H]-dopamine release at 10 uM. The settings on record: Sprangue-Dawley.
For test [19], the species on record is Rattus norvegicus. Put plainly: Antagonist activity at nAChR in Sprague-Dawley rat striatal slices assessed as inhibition of nicotine-induced [3H]-dopamine release at 5 uM. As to conditions: Sprangue-Dawley.

Neuronal acetylcholine receptor; alpha4/beta2 (Rattus norvegicus, UniProt P09483+P12390), sequence (P09483 whole entry): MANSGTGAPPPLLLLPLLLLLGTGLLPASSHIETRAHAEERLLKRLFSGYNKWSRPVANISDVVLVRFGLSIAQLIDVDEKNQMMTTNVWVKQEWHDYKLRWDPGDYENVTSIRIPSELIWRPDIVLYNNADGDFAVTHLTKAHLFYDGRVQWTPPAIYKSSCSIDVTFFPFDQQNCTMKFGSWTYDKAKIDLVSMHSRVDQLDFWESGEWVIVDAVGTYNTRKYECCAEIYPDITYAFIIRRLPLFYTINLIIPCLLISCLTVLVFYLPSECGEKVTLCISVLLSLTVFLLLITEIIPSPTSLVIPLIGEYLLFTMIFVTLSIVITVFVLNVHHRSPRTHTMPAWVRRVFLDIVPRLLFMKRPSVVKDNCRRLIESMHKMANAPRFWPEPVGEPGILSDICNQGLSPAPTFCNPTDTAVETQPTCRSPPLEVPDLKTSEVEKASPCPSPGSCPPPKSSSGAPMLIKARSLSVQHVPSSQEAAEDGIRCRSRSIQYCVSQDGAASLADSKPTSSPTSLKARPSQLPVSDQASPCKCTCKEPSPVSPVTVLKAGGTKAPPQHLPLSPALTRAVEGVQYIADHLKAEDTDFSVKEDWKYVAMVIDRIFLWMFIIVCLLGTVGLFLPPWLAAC
Neuronal acetylcholine receptor; alpha4/beta2 (Rattus norvegicus, UniProt P09483+P12390), sequence (P12390 whole entry): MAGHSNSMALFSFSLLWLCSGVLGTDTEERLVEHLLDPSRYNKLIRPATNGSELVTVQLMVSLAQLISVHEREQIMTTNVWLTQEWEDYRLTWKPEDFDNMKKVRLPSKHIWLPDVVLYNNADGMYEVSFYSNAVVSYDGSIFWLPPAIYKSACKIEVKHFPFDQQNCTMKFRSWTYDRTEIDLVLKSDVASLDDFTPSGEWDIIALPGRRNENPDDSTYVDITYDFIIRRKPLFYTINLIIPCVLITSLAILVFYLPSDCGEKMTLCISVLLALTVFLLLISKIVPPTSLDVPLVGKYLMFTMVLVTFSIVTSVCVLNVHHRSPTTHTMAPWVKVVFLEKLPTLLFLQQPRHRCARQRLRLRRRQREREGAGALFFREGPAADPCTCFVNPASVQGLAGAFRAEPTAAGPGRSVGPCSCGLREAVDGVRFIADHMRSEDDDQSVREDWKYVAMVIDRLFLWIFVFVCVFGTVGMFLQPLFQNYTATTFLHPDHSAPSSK
Neuronal acetylcholine receptor subunit alpha-7, sequence (Q05941 whole entry): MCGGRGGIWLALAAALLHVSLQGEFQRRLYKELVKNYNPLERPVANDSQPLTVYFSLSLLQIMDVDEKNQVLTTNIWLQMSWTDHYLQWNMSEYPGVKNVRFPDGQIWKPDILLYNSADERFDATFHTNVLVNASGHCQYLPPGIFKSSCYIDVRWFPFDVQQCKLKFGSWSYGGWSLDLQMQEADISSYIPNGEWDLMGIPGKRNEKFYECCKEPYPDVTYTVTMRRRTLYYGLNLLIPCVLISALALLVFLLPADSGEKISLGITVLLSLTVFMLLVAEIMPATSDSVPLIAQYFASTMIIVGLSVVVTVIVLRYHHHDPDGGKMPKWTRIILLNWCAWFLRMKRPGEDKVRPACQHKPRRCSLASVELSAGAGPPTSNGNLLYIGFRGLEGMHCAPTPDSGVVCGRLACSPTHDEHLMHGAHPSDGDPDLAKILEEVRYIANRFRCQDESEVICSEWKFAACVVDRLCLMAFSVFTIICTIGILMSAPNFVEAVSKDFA
D(2) dopamine receptor (Homo sapiens), sequence (P14416 whole entry): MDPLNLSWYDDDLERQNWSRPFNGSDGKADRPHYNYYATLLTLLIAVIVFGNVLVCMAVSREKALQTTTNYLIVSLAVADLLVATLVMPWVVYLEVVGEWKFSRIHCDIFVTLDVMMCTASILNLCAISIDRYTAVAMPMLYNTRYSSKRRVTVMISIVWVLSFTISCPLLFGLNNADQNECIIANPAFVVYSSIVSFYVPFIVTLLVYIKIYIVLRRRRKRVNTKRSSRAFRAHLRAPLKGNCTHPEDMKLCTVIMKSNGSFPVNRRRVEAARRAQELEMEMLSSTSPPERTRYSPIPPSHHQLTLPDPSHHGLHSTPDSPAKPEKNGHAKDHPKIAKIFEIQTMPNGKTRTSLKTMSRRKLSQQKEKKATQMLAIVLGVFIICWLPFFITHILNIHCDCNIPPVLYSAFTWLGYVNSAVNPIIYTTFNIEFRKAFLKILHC

Usually Ki stands for the dissociation constant of the complex between target and ligand, obtained from inhibition or displacement. On to `CCCCCCNCC1CCc2ccc(O)cc2O1` (stereo not given), for which the Ki in test [1] and in [2] was > 100 µM throughout.

Consider `CCCNCC1CCc2ccc(O)cc2O1` (stereo not given), for which the Ki in test [1] and in test [2] was > 100 µM each time.

The IC50 is the concentration that gives 50% inhibition. Consider `CO[C@H]1CC=C2CCN3CCC4=C(CC(=O)OC4)[C@]23C1`, for which the IC50 in [3] was 2.2 µM.

As for `CCCCC[n+]1cccc([C@@H]2CCCN2C)c1`, in test [4], the Activity came to 27%. The Ki in [1] is > 100 µM; in test [2], 3.94 µM. Moreover, the IC50 in test [3] was determined as 15.3 µM; in test [5], 0.09 µM.

`CCCCCC[n+]1cccc([C@@H]2CCCN2C)c1`: the result in test [6] was inactive. In addition, the Activity in [4] is 18%. For the same compound, the Ki in test [1] is > 100 µM; in [2] it was 4.71 µM. Also, the IC50 in [3] was 8.9 µM; in test [5] it was 0.3 µM.

As to `CCCCCCCCCCCC[n+]1cccc([C@@H]2CCCN2C)c1`, the Activity in test [4] amounted to 9%. Further, the Ki in test [1] came out at 83 µM; in test [7] it was 140 pM; in test [2], 1.41 µM. Moreover, in test [3], the 50% inhibitory concentration (IC50) worked out at 0.5 µM. In addition, in test [8], the outcome was Active.

The term inhibition denotes the drop in the measured response relative to a control, in per cent. `CCCCCCCCCC[n+]1cccc([C@@H]2CCCN2C)c1`: the result in test [6] was Active. Moreover, the Activity in test [4] turned out to be 1.3%. The inhibitory constant (Ki) in test [1] stood at 84 µM; in test [7] it was 90 pM; in test [2] it was 8.69 µM. Moreover, the inhibition entry in test [9] is “inactive”. Further, in test [5], the IC50 worked out at 0.2 µM.

Regarding `CN1CCC[C@H]1c1cccnc1`, the result in [10] was Active.

In the case of `CN1CCC[C@H]1c1ccc[n+](CCCCCNCC2CCc3ccc(O)cc3O2)c1` (mixture of isomers), the result in test [6], in [15] and in test [10] was inactive. Also, the Activity in test [4] came to 13%. The inhibition in test [11] came out at 55%. In addition, the Ki in test [1] worked out at 11 µM; in test [2], 2.27 µM; in test [13] it was 0.12 µM; in test [14], 0.043 µM. Also, the Ratio Ki in test [12] is 43; in [16], 30. Moreover, the IC50 is 2.3 µM in [3] and 0.2 µM in test [5].

For the compound `CN1CCC[C@H]1c1ccc[n+](CCCCCCNCC2CCc3ccc(O)cc3O2)c1` (mixture of isomers), the result in test [6], in [15] and in test [10] was inactive. For the same compound, the Activity is 15% in test [4] and 40% in test [17]. Further, the inhibition in test [11] stood at 65%. Besides, the Ki was determined as 13 µM in [1], 0.109 µM in test [2], 0.097 µM in test [13] and 0.0157 µM in [14]. The IC50 in test [3] was 6.9 µM; in test [5], 0.8 µM.

In the case of `CN1CCC[C@H]1c1ccc[n+](CCCCCCCCCCNCC2CCc3ccc(O)cc3O2)c1` (mixture of isomers), in test [4], the Activity amounted to 4%. Besides, the inhibition in [11] came out at 57%. The Ki in test [1] stood at 43 µM; in [2] it was 1.06 µM; in test [13], 0.014 µM; in test [14] it was 0.0033 µM. Also, the results for the Ratio Ki in test [12] and in [16] were 43 and 30, respectively. In addition, the outcome in [15] and in test [10] was inactive. The IC50 in test [3] was found to be 10.4 µM; in test [5], 0.1 µM.

On to `CN1CCC[C@H]1c1ccc[n+](CCCCCCCCCCCCNCC2CCc3ccc(O)cc3O2)c1` (mixture of isomers), for which, in test [4], the Activity was determined as 8.3%. Besides, the inhibition in [11] came to 57%; in test [19], 10%. For the same compound, the Ki in test [1] amounted to 65 µM; in test [2] it was 2.75 µM; in test [13], 0.02 µM; in [14] it was 0.0099 µM. Moreover, the Ratio Ki in test [12] turned out to be 43; in test [16], 30. Further, the outcome in test [15] and in test [10] was inactive. The outcome in test [18] was Active.

Regarding `CNC1(C)C2CCC(C2)C1(C)C` (stereo not given) [MECAMYLAMINE], the IC50 in test [3] amounted to 0.3 µM.

The record behind these values is ChEMBL document CHEMBL3611999, “Bifunctional compounds targeting both D2 and non-α7 nACh receptors: design, synthesis and pharmacological characterization” (Eur J Med Chem, 2015).
